# Data reported in US4357425A, “Process for producing L-amino acid oxidase” (Toyo Jozo Company, Ltd., priority 1980, dated 1982).
# Where “and” joins values, the source holds several entries; their conditions need not be identical. Identical values can stand only once.
# Tested on: L-amino acid oxidase
# Assay: Km value of L-amino acid oxidase
# Type: biochemical, Colletotrichum sp. M5073
# Conditions: upon L-leucine
row,SMILES,Km
1,CC(C)C[C@H](N)C(=O)O [L-Leucine],170 µM

# Tested on: L-amino acid oxidase
# Assay: Inhibition and activation of L-amino acid oxidase by metallic ions or other additives
# Type: biochemical, Colletotrichum sp. M5073
# Conditions: 1 mM additive, 0.01 U of the enzyme; None = 100
# Experimental: (§1) 0.9 ml of a reaction solution of the following composition is placed in a small test tube and warmed to 37° C.
# (§2) 0.1 ml of a liquid containing L-amino acid oxidase is added thereto and reaction continued for exactly for 10 minutes at 37° C. The reaction was terminated by adding 2.0 ml of ethanol. Then, the amount of hydrogen peroxide formed is colorimetrically determined from absorbance measured at 480 nm. The enzymatic activity is determined from the amount of the hydrogen peroxide formed with the following equation: […]
# (§3) The amount of the enzyme which produces 1μ mole of hydrogen peroxide at 37° C. in one minute is defined as one unit (1 U).
# The enzymatic activities of the enzyme are measured with the same procedures as the measurement of the enzyme activity using 0.01 U of the enzyme, and adding 1 mM of various metallic ions or other additives as shown in Table 2 below to the reaction solution. Cyano ion has a strong inhibiting effect on the enzyme and no ion is found to have an activating effect on the enzyme.
row,SMILES,Relative activity (%) with additive
1,[Cl-].[Cl-].[Mg+2] [MgCl2],99.2%
2,[Ca+2].[Cl-].[Cl-] [CaCl2],95.4%
3,[Cl-].[Cl-].[Co+2] [CoCl2],50.6%
4,Cl.N [NH4 Cl],97.1%
5,[N-]=[N+]=[N-].[Na+] [NaN3],100%
6,O=C(O)CN(CCN(CC(=O)O)CC(=O)O)CC(=O)O [EDTA],100%
7,[Cl][Mn][Cl] [MnCl2],97.1%
8,[F-].[Na+] [NaF],97.9%
9,[Ba+2].[Cl-].[Cl-] [BaCl2],97.1%
10,[Cl-].[Li+] [LiCl],97.5%
11,[Cl-].[Cl-].[Zn+2] [ZnCl2],94.2%

# Tested on: L-amino acid oxidase
# Assay: Substrate specificity of L-amino acid oxidase (enzyme activity measurement, H2O2 colorimetry)
# Type: biochemical, Colletotrichum sp. M5073
# Conditions: not given
# Experimental: as §1, §2, §3
# Enzymatic activities of the enzyme on various substrates as shown in the Table 1 below are measured with the same procedures as the measurement of the enzyme activity by using 5 m mole of the substrate and 0.007 U of the enzyme.
row,SMILES,Enzyme acts upon substrate
1,CC(C)C[C@H](N)C(=O)O [L-Leucine],acts upon

# Same assay, conditions: 5 m mole of the substrate, 0.007 U of the enzyme; 37° C., 10 minutes; L-Leucine = 100
row,SMILES,Relative activity (%) on substrate
1,NCCCC[C@H](N)C(=O)O [L-Lysine],29.6%
2,N[C@@H](CS)C(=O)O [L-Cysteine],6.4% and 0.0%
3,N[C@@H](CC(=O)O)C(=O)O [L-Aspartic acid],0.0%
4,N[C@@H](Cc1c[nH]cn1)C(=O)O [L-Histidine],11.8%
5,N[C@@H](CO)C(=O)O [L-Serine],0.0%
6,C[C@@H](N)C(=O)O [D-Alanine],0.0%
7,CSCC[C@H](N)C(=O)O [L-Methionine],93.6%
8,NCC(=O)O [L-Glycin],0.0%
9,NC(Cc1c[nH]c2ccccc12)C(=O)O (racemic) [DL-Tryptophan],27.1%
10,CC[C@H](C)[C@H](N)C(=O)O (racemic) [DL-Isoleucine],15.3%
11,CC[C@H](C)[C@H](N)C(=O)O [L-Isoleucine],29.1%
12,N[C@@H](CCC(=O)O)C(=O)O [L-Glutamic acid],0.0%
13,N[C@H](Cc1ccccc1)C(=O)O [D-Phenylalanine],0.0%
14,C[C@H](N)C(=O)O [L-Alanine],12.3%
15,CC(C)C[C@H](N)C(=O)O [L-Leucine],100.0%
16,N[C@@H](Cc1ccc(O)cc1)C(=O)O [L-Tyrosine],22.2%
17,N[C@@H](Cc1ccccc1)C(=O)O [L-Phenylalanine],70.0%
18,N=C(N)NCCC[C@H](N)C(=O)O [L-Arginine],39.9%
